The subject of data set [1] is Trypanosoma cruzi. As to the kind of experiment: Antitrypanosomal activity against Trypanosoma cruzi Tulahuen C4 strain trypomastigotes assessed as growth inhibition at 20 uM incubated for 48 hrs by resazurin dye based assay. The class given is functional. Further details: scale not given: the % may be the effect or the level left.
For data set [2], the system named is Trypanosoma cruzi. As to the kind of experiment: Antitrypanosomal activity against Trypanosoma cruzi Tulahuen C4 strain amastigotes infected in Vero cells incubated for 72 hrs by beta-galactosidase based assay. Format: functional, organism-based.
The subject of data set [3] is Leishmania major. As to the kind of experiment: Leishmanicidal activity against Leishmania major NIH-S (MHOM/SN/74/Seidman) amastigote incubated for 48 hrs by resazurin dye based plate reader assay. The class given is functional, organism-based. In general terms: The colour change of resazurin is a common sign of viable cells or microbes.
Data set [4] deals with Leishmania major. As to the kind of experiment: Antileishmanial activity against Leishmania major IR-173 (MHO-M/IR/-173) promastigote incubated for 48 hrs by resazurin dye based plate reader assay. The class given is functional, organism-based.
The subject of data set [5] is Leishmania major. As to the kind of experiment: Antileishmanial activity against Leishmania major NIH-S (MHOM/SN/74/Seidman) amastigote infected in THP-1 cells assessed as inhibition of parasite growth incubated for 72 hrs by resazurin dye based plate reader assay. The class given is functional, organism-based. Particulars: THP-1, 72 h.
A short description of data set [6]: Selectivity index, ratio of IC50 for human THP-1 cells to IC50 for static antileishmanial activity against Leishmania donovani 9515 (MHOM/IN/95/9151) amastigote. Format: toxicity, cell-based. The note with it: read-out: Ratio IC50.
The test system of data set [7] is Leishmania donovani. As to the kind of experiment: Antileishmanial activity against Leishmania donovani 9515 (MHOM/IN/95/9151) amastigote infected in THP-1 cells assessed as inhibition of parasite growth incubated for 72 hrs by resazurin dye based plate reader assay. The class given is functional, organism-based. Particulars: THP-1, 72 h.
Data set [8] relates to Trypanosoma evansi. As to the kind of experiment: Trypanocidal activity against Trypanosoma evansi Tansui incubated for 72 hrs by CellTiter-Glo reagent based […] analysis. Format: functional, organism-based. (Cellular ATP, detected with luciferase, serves as a proxy for viable cell number.)
The nature of data set [9]: Cytotoxicity against human […]-differentiated THP-1 cells incubated for 72 hrs by resazurin dye based assay. Format: toxicity, cell-based.
Data set [10] deals with Trypanosoma equiperdum. As to the kind of experiment: Trypanocidal activity against Trypanosoma equiperdum IVM-t1 incubated for 72 hrs by CellTiter-Glo reagent based […] analysis. The class given is functional, organism-based. The note with it: IVM-t1, 72 h.
Data set [11] concerns Trypanosoma brucei rhodesiense. As to the kind of experiment: Trypanocidal activity against Trypanosoma brucei rhodesiense IL1501 incubated for 72 hrs by CellTiter-Glo reagent based […] analysis. The class given is functional, organism-based. Particulars: IL1501, 72 h.
For data set [12], the system named is Trypanosoma brucei brucei. As to the kind of experiment: Trypanocidal activity against Trypanosoma brucei brucei GUTat3.1 incubated for 72 hrs by CellTiter-Glo reagent based […] analysis. Format: functional, organism-based. The note with it: GUTat3.1, 72 h.
The nature of data set [13]: Selectivity index, ratio of IC50 for human THP-1 cells to IC50 for Leishmania major IR-173 (MHO-M/IR/-173) promastigote. Format: toxicity, cell-based. The note with it: read-out: Ratio IC50.
Data set [14] relates to Leishmania donovani. As to the kind of experiment: Antileishmanial activity against Leishmania donovani 9515 (MHOM/IN/95/9151) promastigote incubated for 48 hrs by resazurin dye based plate reader assay. Format: functional, organism-based.
Data set [15] concerns Leishmania donovani. As to the kind of experiment: Leishmanicidal activity against Leishmania donovani 9515 (MHOM/IN/95/9151) amastigote infected in THP-1 cells incubated for 72 hrs by resazurin dye based plate reader assay. The class given is functional, organism-based. Particulars: THP-1, 72 h.
A short description of data set [16]: Cytotoxicity against MDBK cells incubated for 72 hrs by CCK8 assay. Format: toxicity, cell-based, Bos taurus. Particulars: cattle, MDBK cells. (In general: Formazan colour is commonly taken as a measure of viable cells.)
Data set [17] in a line: Selectivity index, ratio of IC50 for african green monkey Vero cells to IC50 for leishmanicidal activity against Leishmania donovani 9515 (MHOM/IN/95/9151) amastigote. Particulars: read-out: Ratio IC50. The class given is toxicity, cell-based.
Data set [18] in a line: Selectivity index, ratio of IC50 for african green monkey Vero cells to IC50 for Leishmania major IR-173 (MHO-M/IR/-173) promastigote. Format: toxicity, cell-based. The note with it: read-out: Ratio IC50.
The test system of data set [19] is Trypanosoma brucei gambiense. As to the kind of experiment: Trypanocidal activity against Trypanosoma brucei gambiense IL1922 incubated for 72 hrs by CellTiter-Glo reagent based […] analysis. The class given is functional, organism-based. The note with it: IL1922, 72 h.
Data set [20] in a line: Selectivity index, ratio of IC50 for african green monkey Vero cells to IC50 for static antileishmanial activity against Leishmania donovani 9515 (MHOM/IN/95/9151) amastigote. The class given is toxicity, cell-based. Particulars: read-out: Ratio IC50.
The test system of data set [21] is Trypanosoma congolense. As to the kind of experiment: Trypanocidal activity against Trypanosoma congolense IL3000 incubated for 72 hrs by CellTiter-Glo reagent based […] analysis. The class given is functional, organism-based. The note with it: IL3000, 72 h.
Data set [22] is described as follows: Selectivity index, ratio of IC50 for human THP-1 cells to IC50 for leishmanicidal activity against Leishmania donovani 9515 (MHOM/IN/95/9151) amastigote. Format: toxicity, cell-based. The note with it: read-out: Ratio IC50.
The nature of data set [23]: Cytotoxicity against green monkey Vero cells incubated for 48 hrs by resazurin dye based assay. The class given is toxicity, cell-based. The note with it: African green monkey (Chlorocebus sabaeus).
Data set [24] can be described thus: Selectivity index, ratio of CC50 for MDBK to IC50 for Trypanosoma congolense IL3000. The note with it: cattle, MDBK cells; read-out: Ratio CC50/IC50. Format: toxicity, cell-based.

Bounds are passed on as bounds.

As usually defined, the IC50 is the concentration that gives 50% inhibition. As for `O=C(Cn1ccnc1[N+](=O)[O-])NCc1ccccc1` [BENZNIDAZOLE], the Activity in data set [1] amounted to 100%. The half-maximal inhibitory concentration (IC50) in data set [2] was determined as 2.7 µM.

Broadly, the CC50 is the concentration that lowers cell viability or growth by half. Turning to `C#CCn1cc(/C=N\N=C\c2ccco2)c2cc([N+](=O)[O-])ccc21`, the IC50 is over 10 µM in data set [3]; 4.9 µM in data set [4]; over 10 µM in [5]; 0.89 µM in [7]; over 78 µM in data set [8]; over 78 µM in data set [10]. Moreover, the IC50 in data set [11] was over 78 µM; in [12], over 78 µM; in data set [14], over 10 µM; in data set [15] it was 2.58 µM; in [19], over 78 µM; in data set [21], over 78 µM. Moreover, the selectivity ratio is 112 in data set [6]; 20 in data set [13]; over 39 in data set [17]; 20 in [18]; over 112 in [20]; over 39 in data set [22]. The compound also displayed a half-inhibitory concentration (IC50) at 72 h in [9] of over 100 µM. In data set [16], this compound showed a CC50 at 72 h of over 312 µM. The IC50 at 48 h in data set [23] is over 100 µM.

`C#CCn1cc(\C=N/N=C/C=C/c2ccccc2)c2cc([N+](=O)[O-])ccc21`: the IC50 in [3] was over 10 µM; in data set [4], 8.08 µM; in [5], over 10 µM; in data set [7] it was 0.34 µM; in data set [8] it was over 70.2 µM; in data set [10], over 70.2 µM. Besides, the 50% inhibitory concentration (IC50) in data set [11] is over 70.2 µM; in [12], over 70.2 µM; in [14] it was over 10 µM; in data set [15], 0.69 µM; in data set [19] it was over 70.2 µM; in [21], 9.4 µM. Moreover, the selectivity ratio in data set [6] was 75; in data set [13], 4; in [17], 37; in [18] it was 3; in data set [20], 75; in [24] it was over 29.9. Besides, the selectivity ratio in [22] worked out at 52. For the same compound, the half-inhibitory concentration (IC50) at 72 h in data set [9] is 35.8 µM. In data set [16], this compound came in with a CC50 at 72 h of 9.2 µM. The compound also came in with an IC50 at 48 h in data set [23] of 24.5 µM.
